Assay results reported in patent publication US20230405028A1 (priority 2020, published 2023).
Read-outs that look alike come from different tables or passages of the source.

Tests used:
[1] = test system: GABA; assay: GABA in A-172 cells; type: cell-based; conditions: escalating doses
Description: (§1) This experiment was designed to explore the synergistic interaction of 5HT2A agonist and a TRP agonists on receptors in the brain that are associated with depression and/or inflammation. […] The development of an inflammatory microenvironment is considered important to the initiation and progression of glioblastoma; however, therapeutic approaches to target inflammation have previously been limited. The abnormal function of IL-6 and IL-8 has been predicted to lead to glioblastoma.
(§2) Thus, unlike the experiments on HSIEC cells described above, no inflammatory treatment was applied to the A-172 cells. The A-172 cells were grown to […] confluence on T-25 flasks to allow a 96-hour duration of exposure of the cells to the compounds of interest

[2] = test system: iNOS; assay: iNOS in HSIEC cells treated with TNF-α/IFN-γ; type: cell-based, human; conditions: 5, 10, 20, 40 μM
[3] = test system: A-172 glioblastoma cells; assay: MTT cell viability assay in A-172 cells
[4] = test system: individuals; assay: Minimum effective dose (MED, MED50) and perceived effects of 5HT2A agonist with or without TRP agonists in individuals; type: in vivo, human
[5] = test system: BDNF; assay: BDNF in A-172 cells; type: cell-based; conditions: escalating doses
Description: as §1, §2

[6] = test system: individuals; assay: Surveys of participants using the formulations (music festival, wellness retreat, home use); conditions: surveys and self-report
Description: Edible chew and capsule formulations including the Base 07—Complete with coffee beans, the 5HT2A agonist alone with corn starch (positive control) or sugar and placebo formulations including corn starch (negative control) or sugar alone (double negative control) were prepared and provided to small groups of individuals for assessment of the effects of the compositions.
The formulations also included additional GRAS material. […] Some studies were undertaken in the context of a music festival. Other studies were undertaken at psilocybin retreat events. Numerous individuals also self-administered the formulations in their personal space and observed their daily routines over an extended number of days of using the formulations. Exclusion criteria were applied in a questionnaire to exclude individuals with a schizophrenia diagnosis, individuals with a family history of schizophrenia, pregnant individuals, minors and other high-risk categories for using psilocybin.
Typically, between 1 and 9 dosage units were provided to each participant per day. The studies varied in duration from one day to four weeks. Heavier individuals (<75 kg) were typically given larger dosages.
On multiple occasions a standard dose of the chocolate format of the complete recipe was distributed prior to a music festival event in Jamaica. […]

[7] = test system: Human primary small intestinal epithelial cells (HSIEC)
[8] = test system: mice; conditions: intraplantar injections (Bandell, 2004); cited from earlier work
[9] = test system: rats; conditions: rats (Iwasaki, 2008); cited from earlier work

With `CN(C)CCc1c[nH]c2cccc(OP(=O)(O)O)c12` [psilocybin, 3-[2-(dimethylamino)ethyl]-4-phosphoryloxyindole, reference compound] the “dose resulting in the greatest increase of GABA” value [1] was 5 µM, the “dose reducing iNOS to the greatest extent” value [2] was 10 µM and the “Cellular Metabolic Activity” value ([3]; 5 μM, 24 h) was 0.155. For the same compound, the “Cellular Metabolic Activity” value ([3]; 5 μM, 48 h) was 0.253, the “Cellular Metabolic Activity” value ([3]; 5 μM, 72 h) was 0.374 and the “Cellular Metabolic Activity” value ([3]; 5 μM, 96 h) was 0.530. The “Cellular Metabolic Activity” value ([3]; 5 μM, time 0) was 0.090, the “Cellular Metabolic Activity” value ([3]; 10 μM, 24 h) was 0.181 and the “Cellular Metabolic Activity” value ([3]; 10 μM, 48 h) was 0.269. The “Cellular Metabolic Activity” value ([3]; 10 μM, 72 h) was 0.363, the “Cellular Metabolic Activity” value ([3]; 10 μM, 96 h) was 0.577 and the “Cellular Metabolic Activity” value ([3]; 10 μM, time 0) was 0.090. The “Cellular Metabolic Activity” value ([3]; 20 μM, 24 h) was 0.201, the “Cellular Metabolic Activity” value ([3]; 20 μM, 48 h) was 0.303 and the “Cellular Metabolic Activity” value ([3]; 20 μM, 72 h) was 0.370. For the same compound, the “Cellular Metabolic Activity” value ([3]; 20 μM, 96 h) was 0.636, the “Cellular Metabolic Activity” value ([3]; 20 μM, time 0) was 0.082 and the “Cellular Metabolic Activity” value ([3]; 40 μM, 24 h) was 0.287. The “Cellular Metabolic Activity” value ([3]; 40 μM, 48 h) was 0.369, the “Cellular Metabolic Activity” value ([3]; 40 μM, 72 h) was 0.457 and the “Cellular Metabolic Activity” value ([3]; 40 μM, 96 h) was 0.703. The “Cellular Metabolic Activity” value ([3]; 40 μM, time 0) was 0.086, the “Cellular Metabolic Activity” value ([3]; 80 μM, 24 h) was 0.469 and the “Cellular Metabolic Activity” value ([3]; 80 μM, 48 h) was 0.528. For the same compound, the “Cellular Metabolic Activity” value ([3]; 80 μM, 72 h) was 0.586, the “Cellular Metabolic Activity” value ([3]; 80 μM, 96 h) was 0.871 and the “Cellular Metabolic Activity” value ([3]; 80 μM, time 0) was 0.084. The “effect on cell growth (MTT, words)” value ([3]; A-172, psilocybin 80 μM) was “modest increase in cell growth”, the “reduction in the MED50 with TRP agonists added” value ([4]; FIGS. 6 to 8) was ~60% and the “MED (dose for 100% of individuals to report a psychoactive effect)” value ([4]; oral, 70 kg individual) was “over 0.3 g of dried fruiting bodies”. For the same compound, the “doses resulting in the decrease of BDNF” value [5] was 20 µM, the “side effects / tolerance / intoxication” value [6] was “no reports of intoxication or other psychoactive effects to a degree that influenced motor skills or coordination” and the “effect on cell growth / cellular metabolic activity (MTT, words)” value [7] was “increase growth of cells”. The “Cellular Metabolic Activity” value ([7]; 5 μM, 24 h) was 0.098, the “Cellular Metabolic Activity” value ([7]; 5 μM, 48 h) was 0.186 and the “Cellular Metabolic Activity” value ([7]; 5 μM, 72 h) was 0.380. For the same compound, the “Cellular Metabolic Activity” value ([7]; 5 μM, 96 h) was 0.621, the “Cellular Metabolic Activity” value ([7]; 5 μM, time 0) was 0.047 and the “Cellular Metabolic Activity” value ([7]; 10 μM, 24 h) was 0.107. The “Cellular Metabolic Activity” value ([7]; 10 μM, 48 h) was 0.198, the “Cellular Metabolic Activity” value ([7]; 10 μM, 72 h) was 0.388 and the “Cellular Metabolic Activity” value ([7]; 10 μM, 96 h) was 0.624. The “Cellular Metabolic Activity” value ([7]; 10 μM, time 0) was 0.038, the “Cellular Metabolic Activity” value ([7]; 20 μM, 24 h) was 0.150 and the “Cellular Metabolic Activity” value ([7]; 20 μM, 48 h) was 0.238. For the same compound, the “Cellular Metabolic Activity” value ([7]; 20 μM, 72 h) was 0.415, the “Cellular Metabolic Activity” value ([7]; 20 μM, 96 h) was 0.635 and the “Cellular Metabolic Activity” value ([7]; 20 μM, time 0) was 0.038. For the same compound, the “Cellular Metabolic Activity” value ([7]; 40 μM, 24 h) was 0.182, the “Cellular Metabolic Activity” value ([7]; 40 μM, 48 h) was 0.259 and the “Cellular Metabolic Activity” value ([7]; 40 μM, 72 h) was 0.467. The “Cellular Metabolic Activity” value ([7]; 40 μM, 96 h) was 0.685, the “Cellular Metabolic Activity” value ([7]; 40 μM, time 0) was 0.041 and the “Cellular Metabolic Activity” value ([7]; 80 μM, 24 h) was 0.345. For the same compound, the “Cellular Metabolic Activity” value ([7]; 80 μM, 48 h) was 0.371, the “Cellular Metabolic Activity” value ([7]; 80 μM, 72 h) was 0.579 and the “Cellular Metabolic Activity” value ([7]; 80 μM, 96 h) was 0.805. The “Cellular Metabolic Activity” value ([7]; 80 μM, time 0) was 0.042, the “Cellular Metabolic Activity” value ([7]; 160 μM, 24 h) was 0.523 and the “Cellular Metabolic Activity” value ([7]; 160 μM, 48 h) was 0.604. The “Cellular Metabolic Activity” value ([7]; 160 μM, 72 h) was 0.808, the “Cellular Metabolic Activity” value ([7]; 160 μM, 96 h) was 1.099 and the “Cellular Metabolic Activity” value ([7]; 160 μM, time 0) was 0.042.
In the case of `O=C/C=C/c1ccccc1` [cinnamaldehyde, (2E)-3-phenylprop-2-enal], the nociceptive behavior [8] is listed as “cause nociceptive behavior”, the adrenaline secretions [9] is listed as “increasing adrenaline secretions” and the “Cellular Metabolic Activity” value ([7]; 5 μM, 24 h) is listed as 0.183. For the same compound, the “Cellular Metabolic Activity” value ([7]; 5 μM, 48 h) was 0.148, the “Cellular Metabolic Activity” value ([7]; 5 μM, 72 h) was 0.236 and the “Cellular Metabolic Activity” value ([7]; 5 μM, 96 h) was 0.423. For the same compound, the “Cellular Metabolic Activity” value ([7]; 5 μM, time 0) was 0.026, the “Cellular Metabolic Activity” value ([7]; 10 μM, 24 h) was 0.166 and the “Cellular Metabolic Activity” value ([7]; 10 μM, 48 h) was 0.119. For the same compound, the “Cellular Metabolic Activity” value ([7]; 10 μM, 72 h) was 0.160, the “Cellular Metabolic Activity” value ([7]; 10 μM, 96 h) was 0.321 and the “Cellular Metabolic Activity” value ([7]; 10 μM, time 0) was 0.022. For the same compound, the “Cellular Metabolic Activity” value ([7]; 20 μM, 24 h) was 0.169, the “Cellular Metabolic Activity” value ([7]; 20 μM, 48 h) was 0.095 and the “Cellular Metabolic Activity” value ([7]; 20 μM, 72 h) was 0.105. For the same compound, the “Cellular Metabolic Activity” value ([7]; 20 μM, 96 h) was 0.152, the “Cellular Metabolic Activity” value ([7]; 20 μM, time 0) was 0.025 and the “Cellular Metabolic Activity” value ([7]; 40 μM, 24 h) was 0.171. For the same compound, the “Cellular Metabolic Activity” value ([7]; 40 μM, 48 h) was 0.049, the “Cellular Metabolic Activity” value ([7]; 40 μM, 72 h) was 0.018 and the “Cellular Metabolic Activity” value ([7]; 40 μM, 96 h) was 0.015. The “Cellular Metabolic Activity” value ([7]; 40 μM, time 0) was 0.026, the “Cellular Metabolic Activity” value ([7]; 80 μM, 24 h) was 0.175 and the “Cellular Metabolic Activity” value ([7]; 80 μM, 48 h) was 0.021. The “Cellular Metabolic Activity” value ([7]; 80 μM, 72 h) was 0, the “Cellular Metabolic Activity” value ([7]; 80 μM, time 0) was 0.030 and the “Cellular Metabolic Activity” value ([7]; 100 μM, 24 h) was 0.171. The “Cellular Metabolic Activity” value ([7]; 100 μM, 48 h) was 0.016, the “Cellular Metabolic Activity” value ([7]; 100 μM, time 0) was 0.027 and the “Cellular Metabolic Activity” value ([7]; 200 μM, 24 h) was 0.191. The “Cellular Metabolic Activity” value ([7]; 200 μM, 48 h) was 0.009, the “Cellular Metabolic Activity” value ([7]; 200 μM, time 0) was 0.031 and the “concentration above which inhibitory effect / significant toxicity (MTT)” value ([7]; human) was “over 10 μM”.
